The values that follow come from patent publication US8859616B2, “Compounds and methods for enhancing hair growth” (Allergan, Inc., priority 2011, dated 2014).

Holding throughout (test): Prostanoid receptor functional activity measured by FLIPR
Holding throughout (assay type): cell-based
Common to all, as to conditions: n = 6 (#1), n = 3 (#2)

The target in one assay is T1, hDP (Homo sapiens, UniProt Q13258).
T1 sequence (Q13258 1-359): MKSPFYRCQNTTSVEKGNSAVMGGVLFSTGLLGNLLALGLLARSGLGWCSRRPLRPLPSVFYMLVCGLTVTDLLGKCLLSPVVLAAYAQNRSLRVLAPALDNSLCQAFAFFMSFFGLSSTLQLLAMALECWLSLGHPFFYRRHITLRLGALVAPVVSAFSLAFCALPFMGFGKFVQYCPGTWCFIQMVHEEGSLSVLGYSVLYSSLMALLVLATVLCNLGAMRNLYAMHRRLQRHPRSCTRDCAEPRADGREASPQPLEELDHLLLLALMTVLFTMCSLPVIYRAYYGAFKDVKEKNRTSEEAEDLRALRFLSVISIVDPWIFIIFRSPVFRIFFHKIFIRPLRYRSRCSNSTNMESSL
The method, then: (§1) The above compounds are evaluated for their selectivity for various prostaglandin (PG) receptors. […] Thus, the method of the present invention may be carried out with EP3 and EP4 receptor agonists and/or prodrugs of EP3 and EP4 receptor agonists.

The target of another assay is T2, hEP1 (Homo sapiens, UniProt P34995).
T2 sequence (P34995 1-402): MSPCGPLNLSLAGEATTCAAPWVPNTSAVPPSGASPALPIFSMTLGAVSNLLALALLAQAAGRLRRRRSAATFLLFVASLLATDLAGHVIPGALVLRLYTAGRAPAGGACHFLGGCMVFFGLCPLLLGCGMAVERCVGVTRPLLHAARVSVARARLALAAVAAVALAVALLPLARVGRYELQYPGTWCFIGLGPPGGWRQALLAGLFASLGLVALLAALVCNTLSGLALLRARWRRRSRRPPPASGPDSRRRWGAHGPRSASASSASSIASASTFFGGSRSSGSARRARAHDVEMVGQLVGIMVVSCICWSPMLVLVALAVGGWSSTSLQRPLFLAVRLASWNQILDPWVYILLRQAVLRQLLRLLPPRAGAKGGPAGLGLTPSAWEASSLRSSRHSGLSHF
As to the method: as §1

A further assay has as its target hEP2 (Homo sapiens, UniProt P43116). The method, then:
as §1

A further assay deals with T3, hEP3 (Homo sapiens, UniProt P43115).
T3 sequence (P43115 1-390): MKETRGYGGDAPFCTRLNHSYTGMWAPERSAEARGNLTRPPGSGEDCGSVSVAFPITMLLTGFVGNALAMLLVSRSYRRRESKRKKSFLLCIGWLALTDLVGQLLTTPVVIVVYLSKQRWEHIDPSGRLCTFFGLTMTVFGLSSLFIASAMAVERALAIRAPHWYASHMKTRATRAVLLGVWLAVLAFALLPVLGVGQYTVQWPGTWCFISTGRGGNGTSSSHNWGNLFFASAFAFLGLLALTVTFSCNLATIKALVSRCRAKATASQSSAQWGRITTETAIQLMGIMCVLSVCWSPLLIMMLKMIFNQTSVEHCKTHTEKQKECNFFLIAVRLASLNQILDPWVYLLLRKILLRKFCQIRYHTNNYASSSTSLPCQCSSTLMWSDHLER
The method, then:
as §1

For a further assay, the target named is hEP4 (Homo sapiens, UniProt P35408). The method, then: as §1
Another assay concerns the target hFP (Homo sapiens, UniProt P43088). The method, then:
as §1

The next assay has as its target hIP (Homo sapiens, UniProt P43119). The method, then: as §1
For the next assay, the target named is T4, hTP (Homo sapiens, UniProt P21731).
T4 sequence (P21731 1-343): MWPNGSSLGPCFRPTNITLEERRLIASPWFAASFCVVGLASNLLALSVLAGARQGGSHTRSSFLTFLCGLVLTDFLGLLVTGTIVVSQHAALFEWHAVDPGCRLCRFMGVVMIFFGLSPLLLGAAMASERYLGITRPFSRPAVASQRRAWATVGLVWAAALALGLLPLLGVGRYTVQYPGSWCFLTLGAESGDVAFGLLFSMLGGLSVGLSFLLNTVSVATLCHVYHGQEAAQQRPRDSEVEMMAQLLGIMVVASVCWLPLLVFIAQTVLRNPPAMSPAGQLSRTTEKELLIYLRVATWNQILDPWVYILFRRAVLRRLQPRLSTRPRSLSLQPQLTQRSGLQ
As to the method: as §1

hIP, sequence (P43119 whole entry): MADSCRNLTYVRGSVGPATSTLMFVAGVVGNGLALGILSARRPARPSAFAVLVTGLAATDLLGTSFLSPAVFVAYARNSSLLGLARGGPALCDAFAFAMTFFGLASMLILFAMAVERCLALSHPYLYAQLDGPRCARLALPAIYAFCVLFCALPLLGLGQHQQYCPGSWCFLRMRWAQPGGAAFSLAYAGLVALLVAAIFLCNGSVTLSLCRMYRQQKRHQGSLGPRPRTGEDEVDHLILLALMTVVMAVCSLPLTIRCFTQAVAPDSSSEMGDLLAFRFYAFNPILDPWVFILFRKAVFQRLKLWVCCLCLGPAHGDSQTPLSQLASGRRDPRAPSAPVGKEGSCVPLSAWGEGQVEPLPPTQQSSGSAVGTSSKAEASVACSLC
hEP2, sequence (P43116 whole entry): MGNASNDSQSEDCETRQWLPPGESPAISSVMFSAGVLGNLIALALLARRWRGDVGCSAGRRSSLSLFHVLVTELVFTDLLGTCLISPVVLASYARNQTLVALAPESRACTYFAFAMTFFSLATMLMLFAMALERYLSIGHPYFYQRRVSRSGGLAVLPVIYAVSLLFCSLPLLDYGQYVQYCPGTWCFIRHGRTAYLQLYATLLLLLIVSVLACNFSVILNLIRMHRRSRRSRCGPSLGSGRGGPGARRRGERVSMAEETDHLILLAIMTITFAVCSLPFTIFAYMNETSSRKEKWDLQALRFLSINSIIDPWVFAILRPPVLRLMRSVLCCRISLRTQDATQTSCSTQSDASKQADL
hFP, sequence (P43088 whole entry): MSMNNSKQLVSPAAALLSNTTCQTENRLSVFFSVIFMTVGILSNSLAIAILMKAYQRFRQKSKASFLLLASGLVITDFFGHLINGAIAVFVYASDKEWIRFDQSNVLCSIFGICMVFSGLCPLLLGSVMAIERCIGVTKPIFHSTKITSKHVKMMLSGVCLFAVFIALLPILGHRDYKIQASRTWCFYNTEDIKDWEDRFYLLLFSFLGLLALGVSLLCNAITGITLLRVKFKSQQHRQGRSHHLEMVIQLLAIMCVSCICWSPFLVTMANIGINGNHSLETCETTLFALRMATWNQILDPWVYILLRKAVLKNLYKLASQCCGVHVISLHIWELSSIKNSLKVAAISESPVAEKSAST
hEP4, sequence (P35408 whole entry): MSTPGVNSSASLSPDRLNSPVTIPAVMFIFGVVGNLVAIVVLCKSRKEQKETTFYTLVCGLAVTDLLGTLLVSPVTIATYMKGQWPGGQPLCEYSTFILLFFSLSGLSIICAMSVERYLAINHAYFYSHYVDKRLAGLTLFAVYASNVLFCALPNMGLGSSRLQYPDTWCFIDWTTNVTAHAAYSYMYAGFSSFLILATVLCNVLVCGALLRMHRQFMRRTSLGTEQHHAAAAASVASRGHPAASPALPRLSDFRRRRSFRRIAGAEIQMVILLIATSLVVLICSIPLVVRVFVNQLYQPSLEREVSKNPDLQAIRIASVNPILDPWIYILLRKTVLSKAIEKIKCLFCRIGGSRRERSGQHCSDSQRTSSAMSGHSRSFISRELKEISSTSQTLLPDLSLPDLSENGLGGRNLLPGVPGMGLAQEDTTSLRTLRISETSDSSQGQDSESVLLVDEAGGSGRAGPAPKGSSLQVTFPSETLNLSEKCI

Turning to `CCCCC[C@H](O)/C=C/[C@H]1[C@H](O)CC(=O)[C@@H]1SCCCSCC(=O)O` [#1, {3-[(1R,2S,3R)-3-Hydroxy-2-((S)-(E)-3-hydroxyoct-1-enyl)-5-oxocyclopentyl-sulfanyl]propylsulfanyl}acetic acid], the EC50 (as a rule, the concentration needed to bring the measured effect to its halfway point) at hDP is over 10000 nM; on hEP1, 304 nM; at hEP2, 380 nM; on hEP3 it was 36 nM; on hEP4 it was 0.26 nM; at hFP it was over 10000 nM. In addition, the EC50 at hIP is over 10000 nM; on hTP, 561 nM.
`CCCCC[C@H](O)/C=C/[C@H]1[C@H](O)CC(=O)[C@@H]1SCCCSCC(=O)OC(C)C` [#2, {3-[(1R,2S,3R)-3-Hydroxy-2-((S)-(E)-3-hydroxyoct-1-enyl)-5-oxocyclopentyl-sulfanyl]propylsulfanyl}acetic acid isopropyl ester]: the EC50 on hDP is over 10000 nM; at hEP1 it was 2260 nM; on hEP2, 1110 nM; at hEP3, 44 nM; at hEP4, 2.55 nM; on hFP, over 10000 nM. Also, the EC50 at hIP was over 10000 nM; at hTP it was 3290 nM.
